According to ChEMBL document CHEMBL1127101, “Interaction of rigid polyamine analogues with the NMDA receptor complex from rat brain” (Bioorg Med Chem Lett, 1993):

What was measured:
Glutamate NMDA receptor [1] = assay: Tested for the binding of [3H]dizocilpine to DEPC (diethylpyrocarbonate) membranes of rat
Glutamate NMDA receptor [2] = assay: Tested for the binding of [3H]dizocilpine to NMDA receptor in rat brain membranes in the presence of 500 uM spermidine; type: cell membranes
[3] = Tested for the increase in [Ca2+] produced by 30 uM of the compound; type: functional

Structure (SMILES)	IC50 (Glutamate NMDA receptor [1]) [µM]	IC50 (Glutamate NMDA receptor [2]) [µM]	Increase [3] [%]
CC[N+](C)(CC)CCC[n+]1c(-c2ccccc2)c2cc(N)ccc2c2ccc(N)cc21 [PROPIDIUM]	6.8	> 1000	97.6
Cc1cc2nc3cc(C)c(N)cc3[n+](-c3ccccc3)c2cc1N	3.95	2.21	77.9
CC[n+]1c(-c2ccccc2)c2cc(N)ccc2c2ccc(N)cc21 [HOMIDIUM BROMIDE]	3.13	7.34	84.7
Nc1ccc2nc3ccc(N)cc3[n+](-c3ccccc3)c2c1 [PHENOSAFRANINE]	2.7	4.33	78.4
